This is an account of results in US20190210996A1, “NOVEL COMPOUNDS” (GLAXOSMITHKLINE INTELLECTUAL PROPERTY DEVELOPMENT LIMITED, priority 2016, published 2019).

Molecules are shown by their SMILES.

The target in the experiment is T1, RPS6KA3 (Homo sapiens, UniProt P51812).
T1 construct: endogenous in cells; host or cells: THP-1
Kind of experiment: Expression proteomics in THP-1 cells: RPS6KA3 protein level. It is filed as cell-based. To be noted: RPS6KA3, THP-1 cells. The protocol:
THP-1 cells were seeded at a concentration of 3×10^6 cells in T175 flasks with 60 mL growth medium (RPMI1640+10% FBS). […] of a 10× compound solution prepared in growth medium (DMSO), CEREBLON_PROTAC) was added and the cells were treated for the indicated time points (6 or 24 h) at 37° C., 5% CO2. For harvesting the cells were collected into falcon tubes on ice, centrifuged and washed twice in cold PBS (Life technologies). After the last washing step the supernatant was removed and the pellets were snap-frozen in liquid N2 and stored at −80° C. and lysed in 2% SDS for 3 min at 95° C. in a thermomixer (Thermo Fisher Scientific), followed by digestion of DNA with Benzonase at 37° C. for 1.5 h. Lysate was cleared by centrifugation an protein concentration in supernatant was determined by BCA assay.
Leukemia 25, 89-100 (2011).
Samples were dried in vacuo and resuspended in 0.05% trifluoroacetic acid in water. Of the sample, 50% was injected into an Ultimate3000 nanoRLSC (Dionex, Sunnyvale, Calif.) coupled to a Q Exactive HF (Thermo Fisher Scientific). Peptides were trapped on a 5 mm×300 μm C18 column (Pepmap100, 5 μm, 300 Å, Thermo Fisher Scientific) in water with 0.05% TFA at 60° C. Separation was performed on custom 50 cm×[…] (ID) reversed-phase columns (Reprosil) at 55° C. Gradient elution was performed from 2% acetonitrile to 40% acetonitrile in 0.1% formic acid and 3.5% DMSO over 2 hours. Samples were online injected into Q-Exactive HF mass spectrometers operating with a data-dependent top 10 method. MS spectra were acquired by using 60.000 resolution and an ion target of 3×10^6. Higher energy collisional dissociation (HCD) scans were performed with 35% NCE at 30.000 resolution (at m/z 200), and the ion target settings was set to 2×10^5 so as to avoid coalescence (Werner, T. et al. Ion Coalescence of Neutron Encoded TMT 10-Plex Reporter Ions. Anal. Chem. 86, 3594-3601 (2014).
The first search was performed with 30 parts per million mass tolerance for peptide precursors and 30 mD (HCD) mass tolerance for fragment ions followed by a final search using recalibrated data with a 10 parts per million mass tolerance for peptide precursors and 20 mD (HCD) mass tolerance for fragment ions. Carbamidomethylation of cysteine residues and TMT modification of lysine residues were set as fixed modifications and methionine oxidation, and N-terminal acetylation of proteins and TMT modification of peptide N-termini were set as variable modifications. […]
Nat Biotech 29, 255-265 (2011). this measure is referred to as ion area Savitski, M. M. et al. Delayed Fragmentation and Optimized Isolation Width Settings for Improvement of Protein Identification and Accuracy of Isobaric Mass Tag Quantification on Orbitrap-Type Mass Spectrometers. […]

T1 sequence (P51812 whole entry): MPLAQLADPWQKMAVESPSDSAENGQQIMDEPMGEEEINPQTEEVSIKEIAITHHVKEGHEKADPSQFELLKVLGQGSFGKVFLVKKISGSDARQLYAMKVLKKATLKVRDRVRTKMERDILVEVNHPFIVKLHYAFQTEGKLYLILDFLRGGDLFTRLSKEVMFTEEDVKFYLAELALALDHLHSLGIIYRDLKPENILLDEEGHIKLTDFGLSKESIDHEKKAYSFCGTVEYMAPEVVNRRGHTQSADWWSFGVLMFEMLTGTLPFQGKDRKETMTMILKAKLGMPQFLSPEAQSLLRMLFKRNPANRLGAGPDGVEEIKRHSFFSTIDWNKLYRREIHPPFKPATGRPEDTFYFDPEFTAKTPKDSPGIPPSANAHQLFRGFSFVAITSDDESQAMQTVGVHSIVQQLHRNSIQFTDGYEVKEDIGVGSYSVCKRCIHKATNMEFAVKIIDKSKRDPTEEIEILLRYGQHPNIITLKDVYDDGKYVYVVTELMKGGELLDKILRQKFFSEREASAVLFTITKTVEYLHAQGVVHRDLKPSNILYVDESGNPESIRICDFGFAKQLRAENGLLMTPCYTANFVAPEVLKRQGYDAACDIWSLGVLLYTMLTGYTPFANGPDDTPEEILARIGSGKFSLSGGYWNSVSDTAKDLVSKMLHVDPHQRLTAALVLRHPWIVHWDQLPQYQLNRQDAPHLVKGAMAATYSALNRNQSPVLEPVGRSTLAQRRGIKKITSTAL

`CNC(=O)c1ccccc1Nc1nc(Nc2ccc(N3CCN(CCOCCOCCOCCOCC(=O)Nc4cccc5c4CN(C4CCC(=O)NC4=O)C5=O)CC3)cc2)ncc1Cl.O=CO` (stereo not shown) [CEREBLON_PROTAC, 14-(4-(4-((5-Chloro-4-((2-(methylcarbamoyl)phenyl)amino)pyrimidin-2-yl)amino)phenyl)piperazin-1-yl)-N-(2-(2,6-dioxopiperidin-3-yl)-1-oxoisoindolin-4-yl)-3,6,9,12-tetraoxatetradecan-1-amide formate]: the “log2 rel. fc. to vehicle control” value (24 h 0.1 μM, n = 1) is −0.74; the “log2 rel. fc. to vehicle control” value (24 h 0.1 μM, n = 2) is recorded as −0.72; the “log2 rel. fc. to vehicle control” value (24 h 1 μM, n = 1) is −1.12; the “log2 rel. fc. to vehicle control” value (24 h 1 μM, n = 2) is given as −1.11.
